Test results as given in patent publication US20250171420A1 (Monte Rosa Therapeutics, Inc., priority 2022, published 2025).

Tests used:
CK1α = target: T1, CK1α (Homo sapiens, UniProt P48729); experiment: CK1α NanoBit Assay (HiBiT-tagged CSNK1A1, HEK293 clonal lines); type: cell-based; conditions: HEK293 HiBiT-CSNK1A1/LgBiT cells, 24 h incubation
T1 construct: HEK293 clonal lines with CRISPR KI HiBiT tag on CSNK1A1
Procedure, shortened: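 HEK293 clones carrying a CRISPR knock-in HiBiT tag on CSNK1A1 and stably expressing LgBiT are treated with compound for 24 hours at 37° C, 5% CO2, then read by luminescence. Response is normalized as 100*(S−N)/(P−N) against plate negative and positive controls, and DC50 values are derived.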

CRBN/DDB1 = CRBN/DDB1 (Homo sapiens, UniProt Q96SW2); experiment: HTRF binding assay (displacement of Cy5-thalidomide probe from CRBN/DDB1); conditions: CRBN/DDB1 2.5 nM, Cy5-Thalidomide 100 nM, 30 min; geometric mean; read-out: HTRF_Thali_Disp_DR_geo_IC50
From the text: Binding of test compounds to CRBN/DDB1 was monitored in an HTRF assay using 1-[5-({2-[2-(2-{[2-(2,6-dioxopiperidin-3-yl)-1,3-dioxo-2,3-dihydro-1H-isoindol-4-yl]oxy}acetamido)ethoxy]ethyl}carbamoyl)pentyl]-3,3-dimethyl-2-[(1E,3E)-5-[(2E)-1,3,3-trimethyl-5-sulfo-2,3-dihydro-1H-indol-2-ylidene]penta-1,3-dien-1-yl]-3H-indol-1-ium-5-sulfonate as a fluorescent probe. In this assay, compounds displace the fluorescently labeled thalidomide-based probe bound to CRBN and fluorescence is monitored with increasing compound concentration. Assays were conducted in Greiner white 384 well HiBase plates (Cat. No 784075-25) in 10 μL total volume. A one pot detection solution of CRBN/DDB1 (2.5 nM), anti-His Terbium Cryptate Gold (1×, PerkinElmer Cat. #: 61HI2TLB), and Cy5-Thalidomide (100 nM, Tenova Cat.: T52461) was prepared in 20 mM HEPES, 20 mM NaCl, 0.2 mM TCEP, 0.2 mM EDTA, and 0.005% Tween20 was dispensed to each assay plate. Test compounds were stored in dry, ambient temperatures at 10 mM. A 10-point, 1:3 dilution series was prepared from 10 mM stock concentrations in Echo-compatible LDV plates. 10 nL of each compound dilution series was dispensed into assays wells using an Echo 650 (Labcyte inc. USA). 10 nL of 10 mM lenalidomide (Selleckchem Cat no. S1029) was transferred into the active-control wells for the assay and 10 nL of DMSO was transferred into the negative control wells. The assay was then allowed to incubate for 30 min at ambient temperature after transferring the test compounds. Plate measurements were taken on a Pherastar FSX (BMG Labtech, Germany) using the HTRF Red filter (Ex. 337 nm, em1: 620 nm, em2: 665 nm) (Flashes: 50, Integration time: 60-400 μs, Z-height: 10 mm, Ratio-multiplier: 10,000). Analysis, HTRF ratio and IC50 values were derived using KNIME analytics (KNIME Zurich) transformation and fitting within Collaborative Drug Discovery (Collaborative Drug Discovery USA) using a 4-parameter logistic fit. HTRF ratio calculation was performed using the following formula: […]
where Y represents the HTRF ratio response (as defined previously), X the compound concentration in μM, Ymin the minimum response plateau, Ymax the maximum response plateau, IC50 the concentration of agonist that gives a response half way between Ymin and Ymax and HillSlope the steepness of the family of curves. No fitting model constraints was applied on Ymin, or Ymax whilst IC50>0 and −0.5>HillSlope>−3
Ki values were derived from the geometric mean of the IC50 values using the Cheng-Prusoff transformation:
where [L] represents the concentration of fluorescent probe in μM, Kd the affinity (binding constant) of the fluorescent probe in units of μM and IC50 the concentration of agonist that gives a response halfway between Ymin and Ymax (as described in 1.2.1)
Analysis and IC50 values were derived using KNIME analytics (KNIME, Zurich) transformation and fitting within Collaborative Drug Discovery (Collaborative Drug Discovery, USA) as described in 1.2.1. Ki values were derived from the geometric mean of the IC50 values using the Cheng-Prusoff transformation as described in 2.2.2. Data was visualized in GraphPad Prism 8.1.2 (GraphPad, USA) and reported as mean and standard deviation. Microsoft Office Excel 2012 (Redmond, WA) was used for calculation of mean and standard deviation.
IC50 data are reported in Table 3 for compounds in Table 1. In Table 3 below, According to the code, A represents a IC50 value of ≤0.1 μM, B represents a IC50 value>0.1 μM and ≤1 μM, C represents an IC50 value>1 μM.

CRBN/DDB1, sequence (Q96SW2 whole entry, species assumed): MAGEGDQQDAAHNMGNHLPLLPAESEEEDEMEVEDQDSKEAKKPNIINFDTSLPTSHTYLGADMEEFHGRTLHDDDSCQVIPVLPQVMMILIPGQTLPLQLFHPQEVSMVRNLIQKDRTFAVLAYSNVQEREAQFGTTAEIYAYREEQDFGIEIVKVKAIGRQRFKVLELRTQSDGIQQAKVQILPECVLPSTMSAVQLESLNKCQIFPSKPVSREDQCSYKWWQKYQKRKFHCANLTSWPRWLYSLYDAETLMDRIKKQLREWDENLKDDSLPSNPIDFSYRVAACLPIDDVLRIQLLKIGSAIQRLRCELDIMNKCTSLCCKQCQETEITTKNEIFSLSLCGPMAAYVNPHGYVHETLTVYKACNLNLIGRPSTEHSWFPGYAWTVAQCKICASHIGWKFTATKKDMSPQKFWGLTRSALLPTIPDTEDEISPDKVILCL
CRBN/DDB1, sequence (Q16531 whole entry partner, species assumed): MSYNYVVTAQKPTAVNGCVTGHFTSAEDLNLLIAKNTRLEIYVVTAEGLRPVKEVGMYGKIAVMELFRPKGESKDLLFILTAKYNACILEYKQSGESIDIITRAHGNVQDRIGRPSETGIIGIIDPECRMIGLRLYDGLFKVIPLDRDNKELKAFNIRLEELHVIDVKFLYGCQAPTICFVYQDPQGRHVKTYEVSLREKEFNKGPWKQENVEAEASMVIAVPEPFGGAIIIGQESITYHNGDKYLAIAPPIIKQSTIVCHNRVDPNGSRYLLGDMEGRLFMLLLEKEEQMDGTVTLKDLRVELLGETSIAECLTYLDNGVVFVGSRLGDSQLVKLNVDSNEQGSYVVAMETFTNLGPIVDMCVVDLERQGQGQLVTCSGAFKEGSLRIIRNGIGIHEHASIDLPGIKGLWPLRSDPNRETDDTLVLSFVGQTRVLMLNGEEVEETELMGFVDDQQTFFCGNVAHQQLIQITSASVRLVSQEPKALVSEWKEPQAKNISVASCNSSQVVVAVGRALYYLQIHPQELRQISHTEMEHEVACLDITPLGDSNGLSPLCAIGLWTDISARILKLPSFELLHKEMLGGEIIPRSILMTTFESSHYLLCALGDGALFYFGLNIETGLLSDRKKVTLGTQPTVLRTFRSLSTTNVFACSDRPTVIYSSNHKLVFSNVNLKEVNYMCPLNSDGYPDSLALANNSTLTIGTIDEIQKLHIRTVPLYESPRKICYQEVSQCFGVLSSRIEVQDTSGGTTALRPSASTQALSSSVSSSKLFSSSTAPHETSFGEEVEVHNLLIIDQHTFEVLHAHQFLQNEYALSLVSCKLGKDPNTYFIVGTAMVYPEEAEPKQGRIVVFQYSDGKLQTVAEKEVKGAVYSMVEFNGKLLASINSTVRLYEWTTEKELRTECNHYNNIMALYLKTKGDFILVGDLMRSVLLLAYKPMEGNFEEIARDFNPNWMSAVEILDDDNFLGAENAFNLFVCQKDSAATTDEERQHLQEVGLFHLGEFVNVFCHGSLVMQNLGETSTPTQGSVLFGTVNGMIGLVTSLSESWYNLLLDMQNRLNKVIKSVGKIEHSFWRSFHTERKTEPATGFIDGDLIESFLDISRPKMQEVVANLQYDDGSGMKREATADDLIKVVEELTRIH
T1 sequence (P48729 whole entry): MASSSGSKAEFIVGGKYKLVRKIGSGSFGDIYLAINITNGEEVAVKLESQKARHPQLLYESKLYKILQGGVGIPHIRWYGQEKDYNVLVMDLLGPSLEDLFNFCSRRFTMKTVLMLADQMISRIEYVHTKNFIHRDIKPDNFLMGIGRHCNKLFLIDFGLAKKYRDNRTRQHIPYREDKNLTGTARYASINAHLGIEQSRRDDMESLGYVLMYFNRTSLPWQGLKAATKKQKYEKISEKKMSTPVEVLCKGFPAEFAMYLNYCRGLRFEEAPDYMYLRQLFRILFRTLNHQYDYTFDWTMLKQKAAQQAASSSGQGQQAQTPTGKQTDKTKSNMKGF
T1 sequence (Q96SW2 whole entry, further chain): as the sequence (Q96SW2 whole entry, species assumed) above
T1 sequence (Q16531 2-1140 partner limits assumed): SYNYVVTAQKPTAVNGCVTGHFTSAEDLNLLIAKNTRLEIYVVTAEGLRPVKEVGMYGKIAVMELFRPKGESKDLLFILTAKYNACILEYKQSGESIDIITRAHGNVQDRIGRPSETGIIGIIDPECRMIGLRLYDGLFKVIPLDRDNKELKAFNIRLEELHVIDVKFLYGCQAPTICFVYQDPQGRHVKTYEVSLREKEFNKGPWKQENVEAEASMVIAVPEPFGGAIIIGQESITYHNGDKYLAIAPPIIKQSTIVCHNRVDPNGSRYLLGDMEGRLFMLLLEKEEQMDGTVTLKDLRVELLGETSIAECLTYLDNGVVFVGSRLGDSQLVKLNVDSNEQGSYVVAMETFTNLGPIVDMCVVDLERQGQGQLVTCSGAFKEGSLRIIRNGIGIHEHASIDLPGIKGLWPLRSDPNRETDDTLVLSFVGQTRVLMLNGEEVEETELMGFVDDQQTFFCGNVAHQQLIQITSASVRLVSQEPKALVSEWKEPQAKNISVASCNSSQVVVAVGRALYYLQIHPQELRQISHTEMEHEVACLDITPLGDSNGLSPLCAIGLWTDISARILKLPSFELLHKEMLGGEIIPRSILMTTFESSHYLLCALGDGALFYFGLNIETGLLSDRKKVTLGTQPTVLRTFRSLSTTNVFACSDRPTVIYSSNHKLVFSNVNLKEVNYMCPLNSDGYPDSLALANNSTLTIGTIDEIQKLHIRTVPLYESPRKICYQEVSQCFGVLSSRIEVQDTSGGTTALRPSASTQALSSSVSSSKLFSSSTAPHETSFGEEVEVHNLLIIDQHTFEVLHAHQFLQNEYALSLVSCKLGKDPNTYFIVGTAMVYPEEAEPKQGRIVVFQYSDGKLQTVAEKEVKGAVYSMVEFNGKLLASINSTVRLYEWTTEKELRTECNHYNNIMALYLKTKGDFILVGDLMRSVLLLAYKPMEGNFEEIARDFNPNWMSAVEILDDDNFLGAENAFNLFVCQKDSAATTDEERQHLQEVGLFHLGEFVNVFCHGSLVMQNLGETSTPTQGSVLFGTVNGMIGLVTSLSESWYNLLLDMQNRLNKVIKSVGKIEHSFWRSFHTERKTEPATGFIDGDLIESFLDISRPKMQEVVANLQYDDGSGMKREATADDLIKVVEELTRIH

| Structure (SMILES) | DC50 (CK1α) | IC50 (CRBN/DDB1) |
| --- | --- | --- |
| COCC1c2cc(C)ccc2CN1C(=O)Nc1ccc2c(c1)CN(C1CCC(=O)NC1=O)C2=O (stereo not shown) [Compound 336, N-(2-(2,6-dioxopiperidin-3-yl)-1-oxoisoindolin-5-yl)-1-(methoxymethyl)-6-methylisoindoline-2-carboxamide] | < 0.1 µM | 100 to 1000 nM |
| O=C1CCC(N2Cc3cc(NC(=O)N4CCc5ccc(C6COC6)cc54)ccc3C2=O)C(=O)N1 (stereo not shown) [Compound 347, N-(2-(2,6-dioxopiperidin-3-yl)-1-oxoisoindolin-5-yl)-6-(oxetan-3-yl)indoline-1-carboxamide] | 0.1 to 1 µM | 100 to 1000 nM |
| O=C1CCC(N2Cc3cc(NC(=O)N4c5ccc(C(F)(F)F)cc5CC45COC5)ccc3C2=O)C(=O)N1 (stereo not shown) [Compound 298] | < 0.1 µM | 100 to 1000 nM |
| CN1CCN(C(=O)Nc2ccc3c(c2)CN(C2CCC(=O)NC2=O)C3=O)c2ccccc21 (stereo not shown) [Compound 286] | 0.1 to 1 µM | 100 to 1000 nM |
| O=C1CCC(N2Cc3cc(NC(=O)N4CCc5c(C6COC6)cccc54)ccc3C2=O)C(=O)N1 (stereo not shown) [Compound 342, N-(2-(2,6-dioxopiperidin-3-yl)-1-oxoisoindolin-5-yl)-4-(oxetan-3-yl)indoline-1-carboxamide] | < 0.1 µM | 100 to 1000 nM |
| COC[C@H]1CN(C(=O)Nc2ccc3c(c2)CN(C2CCC(=O)NC2=O)C3=O)c2ccc(C(F)(F)F)cc21 (stereo partly drawn) [Compound 319, (3R)—N-(2-(2,6-dioxopiperidin-3-yl)-1-oxoisoindolin-5-yl)-3-(methoxymethyl)-5-(trifluoromethyl)indoline-1-carboxamide] | < 0.1 µM | 100 to 1000 nM |
| O=C1CCC(N2Cc3cc(NC(=O)N4CCc5cc(C6CCOC6)ccc54)ccc3C2=O)C(=O)N1 (stereo not shown) [Compound 345, N-(2-(2,6-dioxopiperidin-3-yl)-1-oxoisoindolin-5-yl)-5-(tetrahydrofuran-3-yl)indoline-1-carboxamide] | < 0.1 µM | < 100 nM |
| O=C1CCC(N2Cc3cc(NC(=O)N4CCc5ccc(C6CCOCC6)cc54)ccc3C2=O)C(=O)N1 (stereo not shown) [Compound 365, N-(2-(2,6-dioxopiperidin-3-yl)-1-oxoisoindolin-5-yl)-6-(tetrahydro-2H-pyran-4-yl)indoline-1-carboxamide] | 0.1 to 1 µM | 100 to 1000 nM |

Further lines, results first:

| DC50 (CK1α) | IC50 (CRBN/DDB1) | Structure (SMILES) |
| --- | --- | --- |
| < 0.1 µM | 100 to 1000 nM | C[C@@H]1Cc2cccc(F)c2N1C(=O)Nc1ccc2c(c1)CN(C1CCC(=O)NC1=O)C2=O (stereo partly drawn) [Compound 350, (2R)—N-(2-(2,6-dioxopiperidin-3-yl)-1-oxoisoindolin-5-yl)-7-fluoro-2-methylindoline-1-carboxamide] |
| 0.1 to 1 µM | 100 to 1000 nM | CNC[C@@H]1Cc2ccccc2N1C(=O)Nc1ccc2c(c1)CN(C1CCC(=O)NC1=O)C2=O (stereo partly drawn) [Compound 312, (2S)—N-(2-(2,6-dioxopiperidin-3-yl)-1-oxoisoindolin-5-yl)-2-((methylamino)methyl)indoline-1-carboxamide] |
| < 0.1 µM | 100 to 1000 nM | CCc1cccc2c1N(C(=O)Nc1ccc3c(c1)CN(C1CCC(=O)NC1=O)C3=O)CC2 (stereo not shown) [Compound 162, N-(2-(2,6-dioxopiperidin-3-yl)-1-oxoisoindolin-5-yl)-7-ethylindoline-1-carboxamide] |
| 0.1 to 1 µM | 100 to 1000 nM | NC[C@@H]1Cc2ccccc2N1C(=O)Nc1ccc2c(c1)CN(C1CCC(=O)NC1=O)C2=O (stereo partly drawn) [Compound 310, (2S)-2-(aminomethyl)-N-(2-(2,6-dioxopiperidin-3-yl)-1-oxoisoindolin-5-yl)indoline-1-carboxamide] |
| < 0.1 µM | 100 to 1000 nM | O=C1CCC(N2Cc3cc(NC(=O)N4c5cccc(F)c5CC45COC5)ccc3C2=O)C(=O)N1 (stereo not shown) [Compound 304, N-(2-(2,6-dioxopiperidin-3-yl)-1-oxoisoindolin-5-yl)-4-fluorospiro[indoline-2,3′-oxetane]-1-carboxamide] |
| 0.1 to 1 µM | 100 to 1000 nM | O=C1CCC(N2Cc3cc(NC(=O)N4CC(c5ccccc5)C4)ccc3C2=O)C(=O)N1 (stereo not shown) [Compound 111, N-(2-(2,6-dioxopiperidin-3-yl)-1-oxoisoindolin-5-yl)-3-phenylazetidine-1-carboxamide] |
